Assay [1] relates to AKT protein phosphorylated on serine 473 (P-AKT-S473) in PC3 human prostate carcinoma cells. Nature of the assay: pAKT expression in PC3 human prostate carcinoma cells measured by MSD Multi-spot Biomarker detection (test B). In kind it is cell-based. To be noted: Homo sapiens, PC-3, P-AKT-S473, PC3 cells, MSD sandwich immunoassay, 1 to 2 h incubation, absolute IC50. Put shortly: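 PC3 cells exposed to compound for 1-2 h at 37 °C (0.1% DMSO; up to 10 μM), lysed, and P-AKT-S473 quantified by electrochemiluminescent sandwich immunoassay. Percent inhibition normalised to DMSO wells with background subtracted. Absolute IC50 from dose-response curves, averaged over 2 experiments.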

Assay [2] has as its system P. falciparum (highly chloroquine-resistant strain Fcm29-Cameroon). Nature of the assay: Antimalarial activity test (radioactive micromethod of Desjardins, tritiated hypoxanthine incorporation). Type of assay: cell-based. As to conditions: Plasmodium falciparum, Erythrocyte, infected human erythrocytes, 48 h. In short, it runs like this: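 P. falciparum cultured in infected human erythrocytes (2% haematocrit, 1.5% parasitaemia) in RPMI 1640 with 5% human serum and 1% DMSO, exposed to compound for 48 h at 37 °C, 5% CO2. Tritiated hypoxanthine added at 24 h; growth inhibition versus drug-free incorporation, reported as % at 1 μM and 0.1 μM.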

pIC50: −log10 of the molar value.

A word on the pIC50: it is −log10 of the IC50, conventionally taken in molar units. Higher therefore signals a small IC50. A word on the inhibition: it is the percentage by which the read-out fell short of the control. On to `COc1ccc(CCN2c3nc(N4CCOCC4)cc(=O)n3C[C@@]2(C)C(F)(F)F)cc1` [Example 1, (S)-1-[2-(4-Methoxyphenyl)ethyl]-2-methyl-7-morpholin-4-yl-2-trifluoromethyl-2,3-dihydro-1H-imidazo[1,2-a]pyrimidin-5-one], for which, in assay [1], the pIC50 is 8.52. The inhibition at 0.1 µM in assay [2] (0.1 μM) was found to be 67%. Besides, the inhibition at 1 µM in assay [2] (1 μM) was found to be 93%.
